Converted amounts (≈) assume the structure as drawn.
Experiments:
Staphylococcus aureus [1] = test: Antibacterial activity against methicillin-resistant Staphylococcus aureus ATCC 43300 assessed as inhibition of bacterial growth incubated for 16 hrs by CLSI based broth microdilution method; type: functional
Staphylococcus aureus [2] = test: Antibacterial activity against Staphylococcus aureus ATCC 29213 assessed as inhibition of bacterial growth incubated for 16 hrs by CLSI based broth microdilution method; type: functional
Staphylococcus aureus [3] = test: Antibacterial activity against Staphylococcus aureus AD3 assessed as inhibition of bacterial growth incubated for 16 hrs by CLSI based broth microdilution method; type: functional
Staphylococcus aureus [4] = test: Antibacterial activity against Staphylococcus aureus 144 assessed as inhibition of bacterial growth incubated for 16 hrs by CLSI based broth microdilution method; type: functional
Staphylococcus aureus [5] = test: Antibacterial activity against Staphylococcus aureus SA17 assessed as inhibition of bacterial growth incubated for 16 hrs by CLSI based broth microdilution method; type: functional
RAW264.7 = test: Cytotoxicity against mouse RAW264.7 cells assessed as reduction in cell viability at 8 ug/ml incubated for 16 hrs by MTT assay; type: toxicity, cell-based; conditions: raw264.7, 16 h, dose 8 µg/ml
16HBE14o- [6] = test: Cytotoxicity against human 16HBE14o- cells assessed as reduction in cell viability at 8 ug/ml incubated for 16 hrs by MTT assay; type: toxicity, cell-based; conditions: dose 8 µg/ml
Staphylococcus aureus [7] = test: Antibacterial activity against methicillin-resistant Staphylococcus aureus ATCC 43300 infected in ICR/Swiss mouse […] thigh infection model assessed as log reduction in bacterial load in thigh at 20 mg/kg, iv administered as bolus injection measured after 24 hrs; type: functional
Staphylococcus aureus [8] = test: Antibacterial activity against methicillin-resistant Staphylococcus aureus ATCC 43300 infected in ICR/Swiss mouse systemic infection model assessed as survival rate at 30 mg/kg, iv administered as bolus injection 1 hr post infection measured twice daily after 2 to 7 days; type: functional; conditions: time 2-7 day
[9] = molecular target: Bacterial 70S ribosome (Bacteria) (UniProt P0A7V0+P60723+P0AG67+P0A7R5+P0A7R9+P0A7S3+P0A7S9+P0AG59+P0ADZ4+P0A7T3+P0AG63+P0A7T7+P0A7U3+P0A7U7+P68679+P0A7V3+P0A7V8+P0A7W1+P02358+P02359+P0A7W7+P0A7X3+P0A7J3+P0A7J7+P0AA10+P0ADY3+P02413+P0ADY7+P0AG44+P0C018+P0A7K6+P0A7L0+P0A7L3+P0AG48+P61175+P0ADZ0+P60624+P68919+P0A7L8+P0A7M2+P0A7M6+P60422+P0AG51+P0A7N1+P0A7M9+P0A7N4+P0A7N9+P0A7P5+P0A7Q1+Q2EEQ2+P0A7Q6+P60438+P62399+P0AG55+P0A7K2); test: Binding affinity to Staphylococcus aureus ATCC 43300 50S ribosomal subunit assessed as association rate constant by surface plasmon resonance analysis; type: subcellular
Bacterial 70S ribosome = test: Binding affinity to Staphylococcus aureus ATCC 43300 50S ribosomal subunit assessed as equilibrium dissociation constant by surface plasmon resonance analysis; type: subcellular
Staphylococcus aureus [10] = test: Antibacterial activity against methicillin-resistant Staphylococcus aureus ATCC 43300 assessed as log reduction in colony forming unit at 4 times MIC measured after 3 hrs by time kill assay; type: functional
Staphylococcus aureus [11] = test: Antibacterial activity against methicillin-resistant Staphylococcus aureus ATCC 43300 assessed as log reduction in colony forming unit at 4 times MIC measured after 24 hrs by time kill assay; type: functional
16HBE14o- [12] = test: Cytotoxicity against human 16HBE14o- cells assessed as reduction in cell viability at 8 ug/ml incubated for 16 hrs by MTT assay relative to control; type: toxicity, cell-based; conditions: at 8 µg/mL
[13] = Clearance in mouse assessed as hepatic blood flow at 10 mg/kg, iv administered as bolus infection measured upto 24 hrs by LC-MS analysis; type: ADME, organism-based; conditions: in vivo
Staphylococcus aureus [14] = test: Antibacterial activity against methicillin-resistant Staphylococcus aureus ATCC 43300 infected in ICR/Swiss mouse systemic infection model assessed as survival rate at 30 mg/kg, iv administered as bolus injection 1 hr post infection measured twice daily after 3 to 7 days; type: functional; conditions: time 3-7 day
[15] = MRT in mouse at 10 mg/kg, iv administered as bolus infection measured upto 24 hrs by LC-MS analysis; type: ADME, organism-based; conditions: in vivo
[16] = Half life in mouse at 10 mg/kg, iv administered as bolus infection measured upto 24 hrs by LC-MS analysis; type: ADME, organism-based; conditions: in vivo
[17] = Clearance in mouse at 10 mg/kg, iv administered as bolus infection measured upto 24 hrs by LC-MS analysis; type: ADME, organism-based; conditions: in vivo
[18] = AUC(0 to t) in mouse at 10 mg/kg, iv administered as bolus injection measured upto 24 hrs by LC-MS analysis; type: ADME, organism-based; set-up: dose 10 mg/kg, time < 24 hrs, route iv; conditions: in vivo
[19] = AUC(0 to infinity) in mouse at 10 mg/kg, iv administered as bolus injection measured upto 24 hrs by LC-MS analysis; type: ADME, organism-based; set-up: time < 24 hrs, dose 10 mg/kg, route iv; conditions: in vivo

| Structure (SMILES) | MIC (Staphylococcus aureus [1]) [µg/mL] | MIC (Staphylococcus aureus [2]) [µg/mL] | MIC (Staphylococcus aureus [3]) [µg/mL] | MIC (Staphylococcus aureus [4]) [µg/mL] | MIC (Staphylococcus aureus [5]) [µg/mL] | Activity (RAW264.7) | Activity (16HBE14o- [6]) | Activity (Staphylococcus aureus [7]) [log10CFU/ml] | Ka [9] | Kd (Bacterial 70S ribosome) [nM] | other results |
| --- | --- | --- | --- | --- | --- | --- | --- | --- | --- | --- | --- |
| C=C[C@]1(C)C[C@@H](OC(=O)CSc2nnc(-c3ccc(F)cc3)[nH]2)[C@]2(C)[C@H](C)CC[C@]3(CCC(=O)[C@H]32)[C@@H](C)[C@@H]1O | 0.125 (≈ 0.225 µM) | 0.125 (≈ 0.225 µM) | 0.0625 (≈ 0.112 µM) | 1 (≈ 1.8 µM) | 1 (≈ 1.8 µM) | Non-Toxic | Non-Toxic | – | – | – | – |
| C=C[C@]1(C)C[C@@H](OC(=O)CSc2nnc(-c3cccc(OC)c3)[nH]2)[C@]2(C)[C@H](C)CC[C@]3(CCC(=O)[C@H]32)[C@@H](C)[C@@H]1O | 0.125 (≈ 0.22 µM) | 0.125 (≈ 0.22 µM) | 0.0625 (≈ 0.11 µM) | 0.5 (≈ 0.881 µM) | 0.5 (≈ 0.881 µM) | Non-Toxic | Non-Toxic | – | – | – | – |
| C=C[C@]1(C)C[C@@H](OC(=O)CSCCN(CC)CC)[C@]2(C)[C@H](C)CC[C@]3(CCC(=O)[C@H]32)[C@@H](C)[C@@H]1O [TIAMULIN] | 0.5 (≈ 1.01 µM) | 0.5 (≈ 1.01 µM) | 0.5 (≈ 1.01 µM) | 1 (≈ 2.03 µM) | 1 (≈ 2.03 µM) | – | – | -1.1 | 1.22 10^2/Ms | 36.3 | survival at 30 mg/kg (Staphylococcus aureus [8]): 30% |
| C=C[C@]1(C)C[C@@H](OC(=O)CSc2nnc(-c3ccc(OC)cc3)[nH]2)[C@]2(C)[C@H](C)CC[C@]3(CCC(=O)[C@H]32)[C@@H](C)[C@@H]1O | 0.125 (≈ 0.22 µM) | 0.25 (≈ 0.44 µM) | 0.0625 (≈ 0.11 µM) | 1 (≈ 1.76 µM) | 0.5 (≈ 0.881 µM) | Non-Toxic | Non-Toxic | – | – | – | – |
| C=C[C@]1(C)C[C@@H](OC(=O)CSc2nnc(-c3ccccc3OC)[nH]2)[C@]2(C)[C@H](C)CC[C@]3(CCC(=O)[C@H]32)[C@@H](C)[C@@H]1O | 0.0625 (≈ 0.11 µM) | 0.125 (≈ 0.22 µM) | 0.0625 (≈ 0.11 µM) | 0.125 (≈ 0.22 µM) | 0.125 (≈ 0.22 µM) | Non-Toxic | Non-Toxic | -1.27 | 4.99 10^2/Ms | 121000 | Activity (Staphylococcus aureus [10]): -1.53 log10CFU/ml; Activity (Staphylococcus aureus [11]): -7.1 log10CFU/ml |
| C=C[C@]1(C)C[C@@H](OC(=O)CSc2nnc(-c3cccc(C(F)(F)F)c3)[nH]2)[C@]2(C)[C@H](C)CC[C@]3(CCC(=O)[C@H]32)[C@@H](C)[C@@H]1O | 1 (≈ 1.65 µM) | 2 (≈ 3.3 µM) | 0.25 (≈ 0.413 µM) | > 32 | > 32 | Non-Toxic | – | – | – | – | Activity (16HBE14o- [12]): > 50% |
| C=C[C@]1(C)C[C@@H](OC(=O)CSc2nnc(-c3ccccc3[N+](=O)[O-])[nH]2)[C@]2(C)[C@H](C)CC[C@]3(CCC(=O)[C@H]32)[C@@H](C)[C@@H]1O | 0.25 (≈ 0.429 µM) | 0.125 (≈ 0.215 µM) | 0.25 (≈ 0.429 µM) | 0.25 (≈ 0.429 µM) | 0.125 (≈ 0.215 µM) | Non-Toxic | Non-Toxic | – | – | – | – |
| C=C[C@]1(C)C[C@@H](OC(=O)CSc2nnc(-c3ccccc3Cl)[nH]2)[C@]2(C)[C@H](C)CC[C@]3(CCC(=O)[C@H]32)[C@@H](C)[C@@H]1O | 0.125 (≈ 0.218 µM) | 0.5 (≈ 0.874 µM) | 0.125 (≈ 0.218 µM) | 0.5 (≈ 0.874 µM) | 0.5 (≈ 0.874 µM) | Non-Toxic | Non-Toxic | – | – | – | – |
| C=C[C@]1(C)C[C@@H](OC(=O)CSc2nnc(-c3ccccc3F)[nH]2)[C@]2(C)[C@H](C)CC[C@]3(CCC(=O)[C@H]32)[C@@H](C)[C@@H]1O | 0.0625 (≈ 0.112 µM) | 0.125 (≈ 0.225 µM) | 0.03 (≈ 0.054 µM) | 0.25 (≈ 0.45 µM) | 0.125 (≈ 0.225 µM) | Non-Toxic | Non-Toxic | -1.53 | 1.04 10^3/M.s | 1950 | QH [13]: 90 mL/min/kg; Activity (Staphylococcus aureus [10]): -1.66 log10CFU/ml; Activity (Staphylococcus aureus [11]): -7.7 log10CFU/ml; survival at 30 mg/kg (Staphylococcus aureus [14]): 50%; MRT [15]: 93.6 min; t1/2 [16]: 22.2 min; clearance [17]: 90.5 mL/min/kg; AUC(0-t) at 24 h [18]: 1830 ng·h/mL; AUC(0-inf) [19]: 1840 ng·h/mL |
| C=C[C@]1(C)C[C@@H](OC(=O)CSc2nnc(-c3ccccc3C)[nH]2)[C@]2(C)[C@H](C)CC[C@]3(CCC(=O)[C@H]32)[C@@H](C)[C@@H]1O | 0.0625 (≈ 0.113 µM) | 0.25 (≈ 0.453 µM) | 0.125 (≈ 0.227 µM) | 1 (≈ 1.81 µM) | 0.5 (≈ 0.906 µM) | Non-Toxic | Non-Toxic | – | – | – | – |

Reference: ChEMBL document CHEMBL5137011, “Semisynthetic pleuromutilin antimicrobials with therapeutic potential against methicillin-resistant Staphylococcus aureus by targeting 50S ribosomal subunit” (Eur J Med Chem, 2022)
